Test results: US5489604A, “2-saccharinylmethyl aryl and aryloxy acetates useful as proteolytic enzyme inhibitors and compositions and method of use thereof” (Sterling Winthrop, Inc., priority 1994, dated 1996)

Target: T1, human leukocyte elastase (HLE) (Homo sapiens, UniProt P08246)
T1 sequence (P08246 30-267): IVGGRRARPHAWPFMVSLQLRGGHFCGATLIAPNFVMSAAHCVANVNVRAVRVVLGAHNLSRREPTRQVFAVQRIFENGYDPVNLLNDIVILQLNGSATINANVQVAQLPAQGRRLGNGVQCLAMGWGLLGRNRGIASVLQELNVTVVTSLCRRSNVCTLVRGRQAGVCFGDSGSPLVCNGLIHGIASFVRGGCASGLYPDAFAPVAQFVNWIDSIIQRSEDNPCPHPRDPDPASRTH
Assay: inhibition of human leukocyte elastase (HLE): rate of inactivation kon and inhibition constant Ki* (koff/kon)
Assay type: biochemical
Details: for Ki: not truly reversible, ratio of rate of reactivation to rate of inactivation of the enzyme, read-out: K*i (inhibition constant Ki * = koff /kon); for kon: rate of inactivation kon of enzymatic activity, values are Kon × 10^-3
Description: Thus, instead of measuring a Ki, a Ki * is calculated which is defined as the ratio of the koff /kon, the rate of reactivation of the enzyme to the rate of inactivation of the enzyme. The values of koff and kon are measured and Ki * is then calculated.
The rate of inactivation, kon, of enzymatic activity was determined for the compounds tested by measuring the enzyme activity of an aliquot of the respective enzyme as a function of time after addition of the test compound. […] The rate of inactivation is then equal to [formula] where [I] is the concentration of the inhibiting compound.
The reactivation constant, koff, is similarly determined, and the inhibition constant, Ki *, is then calculated as […]

CC(C)(C(=O)OCN1C(=O)c2ccccc2S1(=O)=O)c1ccccc1 [Example 1A]
Ki: 18 nM | kon: 3500 M⁻¹ s⁻¹

CC(C)(Oc1ccc(Cl)cc1)C(=O)OCN1C(=O)c2ccccc2S1(=O)=O [Example 1B]
Ki: 14.5 nM | kon: 4000 M⁻¹ s⁻¹

CC(C)(Oc1ccccc1Cl)C(=O)OCN1C(=O)c2ccccc2S1(=O)=O [Example 1C]
Ki: 14.4 nM | kon: 4100 M⁻¹ s⁻¹

CC(C)c1cccc2c1C(=O)N(COC(=O)C(C)(C)c1ccccc1)S2(=O)=O [Example 1D]
Ki: 1 nM | kon: 23000 M⁻¹ s⁻¹

CC(C)c1cccc2c1C(=O)N(COC(=O)C(C)(C)Oc1ccc(Cl)cc1)S2(=O)=O [Example 1E]
Ki: 0.6 nM | kon: 38000 M⁻¹ s⁻¹

CC(C)c1cccc2c1C(=O)N(COC(=O)C(C)(C)Oc1ccccc1Cl)S2(=O)=O [Example 1F]
Ki: 0.8 nM | kon: 29000 M⁻¹ s⁻¹

CC(C)c1cccc2c1C(=O)N(COC(=O)C(O)c1ccccc1)S2(=O)=O (stereo not shown) [Example 1G]
Ki: 0.26 nM | kon: 88500 M⁻¹ s⁻¹

COC(C(=O)OCN1C(=O)c2c(C(C)C)cccc2S1(=O)=O)c1ccccc1 (stereo not shown) [Example 1H]
Ki: 0.3 nM | kon: 80000 M⁻¹ s⁻¹

COc1cc(C(C)C)c2c(c1)S(=O)(=O)N(COC(=O)[C@H](OC)c1ccccc1)C2=O [Example 1I]
Ki: 0.08 nM | kon: 118000 M⁻¹ s⁻¹

COc1cc(C(C)C)c2c(c1)S(=O)(=O)N(COC(=O)C(C)(O)c1ccccc1)C2=O (stereo not shown) [Example 1J]
Ki: 0.12 nM | kon: 77700 M⁻¹ s⁻¹

COc1cc(C(C)C)c2c(c1)S(=O)(=O)N(COC(=O)[C@@H](OC)c1ccccc1)C2=O [Example 1K]
Ki: 0.09 nM | kon: 102000 M⁻¹ s⁻¹
